From article PMC3673835, “Synthesis and biological evaluation of 1, 3-dihydroxyxanthone mannich base derivatives as anticholinesterase agents” (Chemistry Central Journal, 2013)
Read-outs that look alike come from different tables or passages of the source.

What was measured:
[1] = target: horse-serum BuChE (EC3.1.1.8) (Equus caballus, UniProt P81908); assay: biochemical; assay type: biochemical; settings: for Selectivity for BuChE/AChE: ratio IC50 BuChE / IC50 AChE; for IC50: substrate butyrylthiocholine, 37°C, pH 8.0
[2] = target: Electric-eel AChE (EC 3.1.1.7) (Electrophorus electricus, UniProt O42275); assay: biochemical; settings: means ± standard deviation of triplicate independent experiments; substrate acetylthiocholine iodide; 37°C, pH 8.0
BuChE = BuChE (Equus caballus, UniProt P81908); assay type: biochemical; settings: Lineweaver-Burk plots, curves intersect at the secondary quadrant
AChE = target: T1, AChE (Electrophorus electricus, UniProt O42275); assay: Enzyme kinetic assay on AChE (Lineweaver-Burk plots); assay type: biochemical, Electric-eel; settings: curves intersect at the secondary quadrant
T1 construct: purchased Sigma

[3] = listed as 2-((diethylamino)methyl)-1-hydroxy-3-(3-methylbut-2-enyloxy)-9H-xanthen-9-one

Chain of Electric-eel AChE (EC 3.1.1.7) (O42275 24-633): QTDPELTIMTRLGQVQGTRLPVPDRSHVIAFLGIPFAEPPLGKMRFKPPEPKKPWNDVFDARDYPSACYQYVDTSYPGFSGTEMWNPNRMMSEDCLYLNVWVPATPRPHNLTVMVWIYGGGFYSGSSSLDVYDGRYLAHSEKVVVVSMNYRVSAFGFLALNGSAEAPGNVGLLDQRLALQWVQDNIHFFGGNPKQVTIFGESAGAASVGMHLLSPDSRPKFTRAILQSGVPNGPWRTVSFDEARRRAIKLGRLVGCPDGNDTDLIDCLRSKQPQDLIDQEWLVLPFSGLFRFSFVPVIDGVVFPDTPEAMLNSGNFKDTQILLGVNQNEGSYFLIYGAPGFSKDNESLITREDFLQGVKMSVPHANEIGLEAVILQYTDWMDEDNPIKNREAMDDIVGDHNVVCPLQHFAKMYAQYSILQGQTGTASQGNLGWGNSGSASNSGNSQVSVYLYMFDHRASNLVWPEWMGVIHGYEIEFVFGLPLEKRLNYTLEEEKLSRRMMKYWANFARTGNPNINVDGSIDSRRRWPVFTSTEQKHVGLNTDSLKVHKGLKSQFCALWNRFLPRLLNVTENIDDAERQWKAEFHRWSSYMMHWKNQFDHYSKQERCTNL
Chain of horse-serum BuChE (EC3.1.1.8) (P81908 whole entry): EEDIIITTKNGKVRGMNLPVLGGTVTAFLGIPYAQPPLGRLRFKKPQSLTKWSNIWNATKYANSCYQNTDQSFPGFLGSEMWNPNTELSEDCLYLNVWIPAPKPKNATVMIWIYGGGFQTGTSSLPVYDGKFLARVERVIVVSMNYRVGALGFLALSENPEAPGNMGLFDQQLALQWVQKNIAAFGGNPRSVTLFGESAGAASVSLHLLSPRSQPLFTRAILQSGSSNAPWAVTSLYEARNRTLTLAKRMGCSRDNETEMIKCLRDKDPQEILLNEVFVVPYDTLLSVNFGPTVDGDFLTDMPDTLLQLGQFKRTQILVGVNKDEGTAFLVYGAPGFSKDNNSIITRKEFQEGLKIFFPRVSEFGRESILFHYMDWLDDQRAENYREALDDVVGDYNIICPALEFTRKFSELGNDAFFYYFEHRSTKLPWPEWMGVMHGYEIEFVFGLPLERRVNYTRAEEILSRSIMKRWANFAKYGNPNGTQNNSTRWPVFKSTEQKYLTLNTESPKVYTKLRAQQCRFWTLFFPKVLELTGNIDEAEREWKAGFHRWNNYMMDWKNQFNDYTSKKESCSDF
T1 sequence (O42275 24-633): as the sequence (O42275 24-633) above
Chain of BuChE (P81908 whole entry): as the sequence (P81908 whole entry) above

Structure (SMILES) | Selectivity for BuChE/AChE [1] | IC50 [1] [µM] | IC50 [2] [µM] | Inhibition activity against BuChE at 100 μM [1] | Inhibition mode on BuChE (BuChE) | Inhibition mode on BuChE (BuChE; [3]) | Inhibition mode on AChE (AChE) | Inhibition mode on AChE (AChE; [3])
CCN(CC)Cc1c(OC)cc2oc3ccccc3c(=O)c2c1O [2b, 2-((diethylamino)methyl)-1-hydroxy-3-methoxy-9H-xanthen-9-one] | 2.83 | 6.79 ± 0.56 | 2.4 ± 0.49 |  |  |  |  | 
C=CCOc1cc2oc3ccccc3c(=O)c2c(O)c1CN1CCCC1 [3c, 3-allyloxy-1-hydroxy-2-(pyrrolidin-1-ylmethyl)-9H-xanthen-9-one] | 0.70 | 3.05 ± 0.13 | 4.36 ± 0.58 |  |  |  |  | 
CC(C)=CCOc1cc2oc3ccccc3c(=O)c2c(O)c1CN1CCCCC1 [4d, 1-hydroxy-3-(3-methylbut-2-enyloxy)-2-(piperidin-1-ylmethyl)-9H-xanthen-9-one] | 0.10 | 5.61 ± 0.08 | 55.3 ± 8.15 |  |  |  |  | 
C=CCOc1cc2oc3ccccc3c(=O)c2c(O)c1CN1CCOCC1 [3e, 3-allyloxy-1-hydroxy-2-(morpholinomethyl)-9H-xanthen-9-one] | >1.34 | > 100 | 74.7 ± 4.07 | did not show any inhibition activity |  |  |  | 
C=CCOc1cc2oc3ccccc3c(=O)c2c(O)c1CN(CC)CC [3b, 3-allyloxy-2-((diethylamino)methyl)-1-hydroxy-9H-xanthen-9-one] | 0.26 | 1.54 ± 0.14 | 6 ± 0.33 |  |  |  |  | 
CCN(CC)Cc1c(OCC=C(C)C)cc2oc3ccccc3c(=O)c2c1O [4b, 2-((diethylamino)methyl)-1-hydroxy-3-(3-methylbut-2-enyloxy)-9H-xanthen-9-one] | 0.20 | 0.51 ± 0.01 | 2.61 ± 0.13 |  | mixed-type inhibition | mixed-type manner | mixed-type inhibition | mixed-type manner
COc1cc2oc3ccccc3c(=O)c2c(O)c1CN(C)C [2a, 2-((dimethylamino)methyl)-1-hydroxy-3-methoxy-9H-xanthen-9-one] | 4.66 | 10.9 ± 0.2 | 2.34 ± 0.2 |  |  |  |  | 
C=CCOc1cc2oc3ccccc3c(=O)c2c(O)c1CN1CCCCC1 [3d, 3-allyloxy-1-hydroxy-2-(piperidin-1-ylmethyl)-9H-xanthen-9-one] | 0.47 | 1.73 ± 0.08 | 3.7 ± 0.16 |  |  |  |  | 
COc1cc2oc3ccccc3c(=O)c2c(O)c1CN1CCOCC1 [2e, 1-hydroxy-3-methoxy-2-(morpholinomethyl)-9H-xanthen-9-one] | >12.89 | > 100 | 7.76 ± 2.36 | did not show any inhibition activity |  |  |  | 
O=c1c2ccccc2oc2cc(O)c(CN3CCCCC3)c(O)c12 [1d, 1,3-dihydroxy-2-(piperidin-1-ylmethyl)-9H-xanthen-9-one] | 0.54 | 43 ± 1.76 | 79.3 ± 5.78 |  |  |  |  | 
C=CCOc1cc2oc3ccccc3c(=O)c2c(O)c1CN(C)C [3a, 3-allyloxy-2-((dimethylamino)methyl)-1-hydroxy-9H-xanthen-9-one] | 0.80 | 4.66 ± 0.64 | 5.84 ± 1.19 |  |  |  |  | 
CC(C)=CCOc1cc2oc3ccccc3c(=O)c2c(O)c1CN(C)C [4a, 2-((dimethylamino)methyl)-1-hydroxy-3-(3-methylbut-2-enyloxy)-9H-xanthen-9-one] | 0.57 | 1.49 ± 0.03 | 2.63 ± 0.07 |  |  |  |  | 
CC(C)=CCOc1cc2oc3ccccc3c(=O)c2c(O)c1CN1CCOCC1 [4e] | 0.37 | 8.83 ± 0.36 | 24.2 ± 0.4 |  |  |  |  | 
CN(C)Cc1c(O)cc2oc3ccccc3c(=O)c2c1O [1a, 2-((dimethylamino)methyl)-1,3-dihydroxy-9H-xanthen-9-one] | 0.59 | 62.9 ± 0.84 | 107 ± 5.78 |  |  |  |  | 
CCN(CC)Cc1c(O)cc2oc3ccccc3c(=O)c2c1O [1b, 2-((diethylamino)methyl)-1,3-dihydroxy-9H-xanthen-9-one] | 0.50 | 37 ± 0.56 | 73.7 ± 1.36 |  |  |  |  | 
COc1cc2oc3ccccc3c(=O)c2c(O)c1CN1CCCC1 [2c, 1-hydroxy-3-methoxy-2-(pyrrolidin-1-ylmethyl)-9H-xanthen-9-one] | 1.72 | 7.21 ± 0.75 | 4.2 ± 0.29 |  |  |  |  | 
COc1cc2oc3ccccc3c(=O)c2c(O)c1CN1CCCCC1 [2d, 1-hydroxy-3-methoxy-2-(piperidin-1-ylmethyl)-9H-xanthen-9-one] | 1.53 | 10.6 ± 0.22 | 7 ± 0.07 |  |  |  |  | 
CC(C)=CCOc1cc2oc3ccccc3c(=O)c2c(O)c1CN1CCCC1 [4c, 1-hydroxy-3-(3-methylbut-2-enyloxy)-2-(pyrrolidin-1-ylmethyl)-9H-xanthen-9-one] | 0.49 | 2.89 ± 0.07 | 5.85 ± 0.32 |  |  |  |  | 
O=c1c2ccccc2oc2cc(O)c(CN3CCOCC3)c(O)c12 [1e, 1,3-dihydroxy-2-(morpholinomethyl)-9H-xanthen-9-one] | >1.05 | > 100 | 95.4 ± 1.7 | did not show any inhibition activity |  |  |  | 
O=c1c2ccccc2oc2cc(O)c(CN3CCCC3)c(O)c12 [1c, 1,3-dihydroxy-2-(pyrrolidin-1-ylmethyl)-9H-xanthen-9-one] | 0.43 | 35.5 ± 1.68 | 81.9 ± 2.04 |  |  |  |  | 
